# Values quoted from earlier work in PMC8068036, “Synthesis of New Biscoumarin Derivatives, In Vitro Cholinesterase Inhibition, Molecular Modelling and Antiproliferative Effect in A549 Human Lung Carcinoma Cells” (International Journal of Molecular Sciences, 2021).
# What was measured:
# rat brain AChE = test system: rat brain AChE; parameters: method as in PMID 10213168; details: cited from earlier work
# hAChE = test system: hAChE; parameters: method as in PMID 25812965, PMID 27744252, PMID 10213168; details: Figure 2; cited from earlier work
# BChE = test system: BChE; parameters: method as in PMID 25812965, PMID 27744252, PMID 10213168; details: Figure 2; cited from earlier work
# AChE = test system: AChE; parameters: method as in PMID 25812965, PMID 27744252, PMID 10213168; details: Figure 2; cited from earlier work
# hMAO-B = test system: hMAO-B; parameters: method as in PMID 25812965, PMID 27744252, PMID 10213168; details: printed in Figure 2, quantity not named; cited from earlier work
compound,measurement,setting,value
"COc1cc2oc(=O)c(C)c(C)c2cc1OCCCN1CCN(c2ccccc2OC)CC1 [KA-672, ensaculin]",IC50,rat brain AChE,360 nM
Cc1c(C)c2ccc(OCCN3CCN(CCNc4c5c(nc6ccccc46)CCCC5)CC3)cc2oc1=O [compound 6],IC50,hAChE,16.1 nM
Cc1c(N=O)c(=O)oc2cc(CCCN3CCC(Cc4ccccc4)CC3)ccc12 [compound 7],IC50,BChE,980 nM
same,IC50,AChE,300 nM
same,IC50,hMAO-B,5.9 µM
